# Measurements published in patent US20050143391A1, “Heterocyclic amides with alpha-4 integrin antagonist activity” (J. Uriach Y Compañia S.A., priority 2002, published 2005).
# Molecular target: T1, integrin α4β1 (Homo sapiens, UniProt P05556+P13612)
# T1 construct: endogenous in cells; host or cells: Jurkat cells
# Assay: Inhibition of α4β1-dependent cell adhesion (Jurkat cells to peptide CS-1)
# Format: cell-based
# Conditions: adhesion of Jurkat cells to CS-1-coated plates; products preincubated with cells at 37° C. for 30 minutes; at least 6 product concentrations
# Protocol: Inhibition of α4β1-Dependent Cell Adhesion
# Inhibition of α4β1-dependent cell adhesion was assayed by evaluating the interaction between the peptide CS-1 (H-CLHGPEILDVPST-CONH2) and Jurkat cells (T lymphocyte cell line expressing activated integrin α4β1 but not integrin α4β7) after preincubation of said cells with the compounds of formula I to be tested. The peptide CS-1 was synthesized by conventional solid phase chemistry and purified by HPLC. Its identity was determined by elemental analysis and mass spectroscopy.
# 1.—Preparation of CS-1-Coated Plates
# 96-black well plates (Costar 3925) were used. 200 μL of 2% bovine serum albumin solution (BSA, Sigma α4503) was added per well and the plate was incubated for 2 hours at 37° C. The solution was discarded and the plate was washed twice with 200 μL of phosphate buffered saline solution (PBS, Gibco 14190-094) per well. Then, 200 μL of 10 μg/mL N-succinimidyl 3-(2-pyridyldithio)propionate solution (SPDP, Sigma P-3415) was added per well, and the plate was incubated at 37° C. for 30 minutes. The remaining solution was discarded and the plate was twice washed with 200 μL per well of PBS. Next, 200 μL of 25 μg/mL CS-1 peptide solution (equivalent to 5 μg/well) was added per well and the plate was incubated at 37° C. for 2 hours and then overnight at 4° C.
# 2.—Jurkat Cell Line: Culture and Fluorescent Labelling
# Jurkat cells were kept in culture at a density comprised between 2×10^5 and 1.5×10^6 cells/mL in 1640 RPMI medium (Gibco 21875-034) enriched with 10% fetal calf serum (FCS, Gibco 10270-106).
# 50×10^6 cells were extracted, centrifuged (1200 rpm, 10 min, room temperature) and the medium was discarded. Cells were resuspended in 5 mL of RPMI, and 10 μL of a 1 mM solution of the fluorophore calceine.AM (Molecular Probes, C-3100) was added. The suspension was incubated for 30 min at 37° C. in the darkness, with occasional shaking. 40 mL of RPMI was added to stop the labelling and the suspension was centrifuged (1200 rpm, 10 min, room temperature). The medium was discarded, and the labelled cells were washed with 40 mL of RPMI in order to remove the unincorporated fluorescent probe. Finally, cells were resuspended in RPMI enriched with 10% FCS to obtain a 8×10^6 cells/mL suspension.
# The plate previously prepared was twice washed with 200 μL per well of PBS and blocked with 200 μL of 1% BSA for at least 1 hour at room temperature.
# The products to be tested were dissolved in dimethylsulfoxide at a concentration of 10 mM and dilutions thereof were prepared in RPMI medium enriched with 10% FCS. The products were preincubated with the Jurkat cells at 37° C. for 30 minutes, at a product concentration comprised between 1 nM and 10 μM, at a cell density of 4×10^6 cells/mL and at a maximal dimethylsulfoxide concentration of 0.1%.
# 100 μL of the resulting cell-product supsension was added per well (cellular density 4×10^5 cells/well). The product was omitted in the control wells and cells or CS-1 were omitted in the blanks. The plate was incubated for 60 min at room temperature in the-darkness, was twice washed with 200 μL per well of RPMI and then 100 μL of PBS was added. The plate was read with a fluorescence reader at an excitation wavelength of 485 nm and at an emission wavelength of 530 nm.
# Maximal adhesion (100%) was determined as the average of the fluorescence intensities (FI) of the control wells, and the minimal adhesion as the average FI of the blanks. The adhesion inhibition percentage was determined using the following formula: [formula]
# The results are expressed as the IC50 values (concentration producing 50% inhibition). IC50 values were calculated by testing at least 6 product concentrations and by adjusting the inhibition percentages to a dose-response curve of variable slope.
# T1 sequence (P13612 34-1032): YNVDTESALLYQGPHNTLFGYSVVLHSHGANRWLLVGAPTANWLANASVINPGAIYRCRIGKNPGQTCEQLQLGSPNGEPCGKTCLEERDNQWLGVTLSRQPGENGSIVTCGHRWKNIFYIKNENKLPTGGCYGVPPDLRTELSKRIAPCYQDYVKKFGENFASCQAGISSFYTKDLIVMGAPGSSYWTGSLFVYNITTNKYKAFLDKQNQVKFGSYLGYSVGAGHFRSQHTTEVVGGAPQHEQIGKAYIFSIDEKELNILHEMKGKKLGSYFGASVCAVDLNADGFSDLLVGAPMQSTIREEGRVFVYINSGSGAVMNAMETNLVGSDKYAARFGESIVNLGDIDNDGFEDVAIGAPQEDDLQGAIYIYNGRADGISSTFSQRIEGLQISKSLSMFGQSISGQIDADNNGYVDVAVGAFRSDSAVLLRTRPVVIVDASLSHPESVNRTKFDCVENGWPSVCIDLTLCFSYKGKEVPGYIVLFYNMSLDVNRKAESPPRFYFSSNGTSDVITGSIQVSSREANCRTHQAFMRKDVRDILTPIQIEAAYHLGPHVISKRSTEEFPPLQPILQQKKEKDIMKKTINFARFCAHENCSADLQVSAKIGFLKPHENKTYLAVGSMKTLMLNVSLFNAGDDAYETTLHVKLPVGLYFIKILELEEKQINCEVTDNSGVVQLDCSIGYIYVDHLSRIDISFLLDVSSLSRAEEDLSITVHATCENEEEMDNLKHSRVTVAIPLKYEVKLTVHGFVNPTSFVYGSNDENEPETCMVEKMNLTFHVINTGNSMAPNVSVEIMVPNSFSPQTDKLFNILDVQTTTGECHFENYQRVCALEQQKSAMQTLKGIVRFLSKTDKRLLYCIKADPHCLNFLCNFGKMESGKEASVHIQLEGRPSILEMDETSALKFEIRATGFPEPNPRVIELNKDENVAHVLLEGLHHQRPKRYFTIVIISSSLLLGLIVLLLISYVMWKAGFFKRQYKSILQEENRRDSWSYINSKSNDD
# T1 sequence (P05556 21-798): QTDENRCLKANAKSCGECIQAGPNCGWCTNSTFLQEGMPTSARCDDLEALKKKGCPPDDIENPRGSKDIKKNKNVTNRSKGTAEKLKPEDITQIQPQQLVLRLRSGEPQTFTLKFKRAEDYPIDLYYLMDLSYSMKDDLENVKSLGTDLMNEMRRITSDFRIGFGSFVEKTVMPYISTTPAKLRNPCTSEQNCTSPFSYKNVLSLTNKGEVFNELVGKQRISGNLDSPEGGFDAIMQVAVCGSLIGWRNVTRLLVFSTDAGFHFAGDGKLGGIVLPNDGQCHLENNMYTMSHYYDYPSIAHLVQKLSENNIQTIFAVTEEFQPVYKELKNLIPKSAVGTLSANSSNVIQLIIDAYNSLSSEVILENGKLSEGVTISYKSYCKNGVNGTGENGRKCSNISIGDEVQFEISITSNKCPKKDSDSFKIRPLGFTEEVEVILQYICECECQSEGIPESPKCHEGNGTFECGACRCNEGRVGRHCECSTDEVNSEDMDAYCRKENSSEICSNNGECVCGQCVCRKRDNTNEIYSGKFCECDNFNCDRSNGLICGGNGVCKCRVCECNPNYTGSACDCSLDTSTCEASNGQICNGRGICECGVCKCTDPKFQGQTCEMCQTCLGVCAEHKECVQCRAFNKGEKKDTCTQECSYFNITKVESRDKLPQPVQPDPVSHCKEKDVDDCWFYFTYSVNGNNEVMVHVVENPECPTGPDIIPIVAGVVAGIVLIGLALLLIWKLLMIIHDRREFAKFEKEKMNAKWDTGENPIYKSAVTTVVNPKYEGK
row,IC50,SMILES
1,0.5 nM,"O=C(O)[C@H](CCC(=O)N1CCC(CCN2CCOCC2)CC1)NC(=O)[C@@H]1CCCN1S(=O)(=O)c1cc(Cl)cc(Cl)c1 [Example 80, (2S)-2-[1-(3,5-Dichlorophenylsulfonyl)-L-prolylamino]-5-[4-[2-(4-morpholinyl)ethyl]piperidin-1-yl]-5-oxopentanoic Acid]"
2,89 nM,"Cc1ccc(C)n1CC1CCN(C(=O)CC[C@H](NC(=O)[C@@H]2CCCN2S(=O)(=O)c2cc(Cl)cc(Cl)c2)C(=O)O)CC1 [Example 82, (2S)-2-[1-(3,5-Dichlorophenylsulfonyl)-L-prolylamino]-5-[4-(2,5-dimethylpyrrol-1-ylmethyl)piperidin-1-yl]-5-oxopentanoic Acid]"
3,65 nM,"CN(C)CC1CCN(C(=O)CC[C@H](NC(=O)[C@@H]2CCCN2S(=O)(=O)c2cc(Cl)cc(Cl)c2)C(=O)O)CC1 [Example 83, (2S)-2-[1-(3,5-Dichlorophenylsulfonyl)-L-prolylamino]-5-[4-(dimethylaminomethyl)piperidin-1-yl]-5-oxopentanoic Acid]"
4,6 nM,"CN(C)CCN1CCN(C(=O)CC[C@H](NC(=O)[C@@H]2CCCN2S(=O)(=O)c2cc(Cl)cc(Cl)c2)C(=O)O)CC1 [Example 84, (2S)-2-[1-(3,5-Dichlorophenylsulfonyl)-L-prolylamino]-5-[4-[2-(dimethylamino)ethyl]piperazin-1-yl]-5-oxopentanoic Acid]"
5,12 nM,"CCc1nc2cnccc2n1CC1CCN(C(=O)CC[C@H](NC(=O)[C@@H]2CCCN2S(=O)(=O)c2cc(Cl)cc(Cl)c2)C(=O)O)CC1 [Example 85, (2S)-2-[1-(3,5-Dichlorophenylsulfonyl)-L-prolylamino]-5-[4-(2-ethylimidazo[4,5-c]pyridin-1-ylmethyl)piperidin-1-yl]-5-oxopentanoic Acid]"
6,18 nM,"O=C(O)[C@H](CCC(=O)N1CCC(Cn2c(=O)[nH]c3cnccc32)CC1)NC(=O)[C@@H]1CCCN1S(=O)(=O)c1cc(Cl)cc(Cl)c1 [Example 86, (2S)-2-[1-(3,5-Dichlorophenylsulfonyl)-L-prolylamino]-5-oxo-5-[4-(2-oxo-2,3-dihydroimidazo[4,5-c]pyridin-1-ylmethyl)piperidin-1-yl]pentanoic Acid]"
7,14.1 nM,"CC(C)Nc1nc2cnccc2n1CC1CCN(C(=O)CC[C@H](NC(=O)[C@@H]2CCCN2S(=O)(=O)c2cc(Cl)cc(Cl)c2)C(=O)O)CC1 [Example 87, (2S)-2-[1-(3,5-Dichlorophenylsulfonyl)-L-prolylamino]-5-[(2-isopropylaminoimidazo[4,5-c]pyridin-1-ylmethyl)piperidin-1-yl]-5-oxopentanoic Acid]"
8,83.9 nM,"CCN(CC)CC1CCN(C(=O)CC[C@H](NC(=O)[C@@H]2CCCN2S(=O)(=O)c2cc(Cl)cc(Cl)c2)C(=O)O)CC1 [Example 88, (2S)-2-[1-(3,5-Dichlorophenylsulfonyl)-L-prolylamino]-5-[4-(diethylaminomethyl)piperidin-1-yl]-5-oxopentanoic Acid]"
9,7.7 nM,"Cc1nc2cnccc2n1CC1CCN(C(=O)NC[C@H](NC(=O)[C@@H]2CCCN2S(=O)(=O)c2cc(Cl)cc(Cl)c2)C(=O)O)CC1 [Example 89, (2S)-2-[1-(3,5-Dichlorophenylsulfonyl)-L-prolyl]amino-3-[[4-(2-methylimidazo[4,5-c]pyridin-1-ylmethyl)piperidin-1-ylcarbonyl]amino]propionic Acid]"
10,64.6 nM,"CCN(CC)CCC1CCN(C(=O)CC[C@H](NC(=O)[C@@H]2CCCN2S(=O)(=O)c2cc(Cl)cc(Cl)c2)C(=O)O)CC1 [Example 91, (2S)-2-[1-(3,5-Dichlorophenylsulfonyl)-L-prolylamino]-5-[4-[2-(diethylamino)ethyl]piperidin-1-yl]-5-oxopentanoic Acid]"
11,26.7 nM,"CN1CCN(C(=O)OCCC2CCN(C(=O)CC[C@H](NC(=O)[C@@H]3CCCN3S(=O)(=O)c3cc(Cl)cc(Cl)c3)C(=O)O)CC2)CC1 [Example 93, (2S)-2-[1-(3,5-Dichlorophenylsulfonyl)-L-prolylamino]-5-[4-[2-[(4-methylpiperazin-1-yl)carbonyloxy]ethyl]piperidin-1-yl]5-oxopentanoic Acid]"
12,14.1 nM,"O=C(O)[C@H](CCC(=O)N1CCC(CN2CCCCC2)CC1)NC(=O)[C@@H]1CCCN1S(=O)(=O)c1cc(Cl)cc(Cl)c1 [Example 94, (2S)-2-[1-(3,5-Dichlorophenylsulfonyl)-L-prolylamino]-5-oxo-5-[4-(1-piperidylmethyl)piperidin-1-yl]pentanoic Acid]"
13,4.9 nM,"CN(C)CC1CCN(C(=O)NC[C@H](NC(=O)[C@@H]2CCCN2S(=O)(=O)c2cc(Cl)cc(Cl)c2)C(=O)O)CC1 [Example 95, (2S)-2-[1-(3,5-Dichlorophenylsulfonyl)-L-prolyl]amino-3-[[4 (dimethylaminomethyl)piperidin-1-ylcarbonyl]amino]propionic Acid]"
14,74.8 nM,"CCNCC1CCN(C(=O)CC[C@H](NC(=O)[C@@H]2CCCN2S(=O)(=O)c2cc(Cl)cc(Cl)c2)C(=O)O)CC1 [Example 96, (2S)-2-[1-(3,5-Dichlorophenylsulfonyl)-L-prolylamino]-5-[4-[(ethylamino)methyl]piperidin-1-yl]-5-oxopentanoic Acid]"
15,122 nM,"CN1CCN(C(=O)NCC2CCN(C(=O)CC[C@H](NC(=O)[C@@H]3CCCN3S(=O)(=O)c3cc(Cl)cc(Cl)c3)C(=O)O)CC2)CC1 [Example 97, (2S)-2-[1-(3,5-Dichlorophenylsulfonyl)-L-prolylamino]-5-[4-[[(4-methylpiperazin-1-yl)carbonylamino]methyl]piperidin-1-yl]-5-oxopentanoic Acid]"
16,17.7 nM,"CN(C)CC1CCN(C(=O)OC[C@H](NC(=O)[C@@H]2CCCN2S(=O)(=O)c2cc(Cl)cc(Cl)c2)C(=O)O)CC1 [Example 98, (2S)-2-[1-(3,5-Dichlorophenylsulfonyl)-L-prolyl]amino-3-[4-(dimethylaminomethyl)piperidin-1-ylcarbonyloxy]propionic Acid]"
17,13.1 nM,"O=C(O)[C@H](CCC(=O)N1CCC(CNc2ccncc2)CC1)NC(=O)[C@@H]1CCCN1S(=O)(=O)c1cc(Cl)cc(Cl)c1 [Example 99, (2S)-2-[1-(3,5-Dichlorophenylsulfonyl)-L-prolylamino]-5-oxo-5-[4-(4-pyridylaminomethyl)piperidin-1-yl]pentanoic Acid]"
18,305 nM,"O=C(O)[C@H](CCC(=O)N1CCC(COc2ccncc2)CC1)NC(=O)[C@@H]1CCCN1S(=O)(=O)c1cc(Cl)cc(Cl)c1 [Example 102, (2S)-2-[1-(3,5-Dichlorophenylsulfonyl)-L-prolylamino]-5-oxo-5-[4-(4-pyridyloxymethyl)piperidin-1-yl]pentanoic Acid]"
19,120 nM,"Cc1ccc(S(=O)(=O)N2CCC[C@H]2C(=O)N[C@@H](CNC(=O)N2CCC(CN3CCCCC3)CC2)C(=O)O)cc1 [Example 105, (2S)-3-[[4-(1-Piperidylmethyl)piperidin-1-ylcarbonyl]amino]-2-[N-tosyl-L-prolyl]aminopropionic Acid]"
20,9.8 nM,"CN1CCN(C(=O)OCCC2CCN(C(=O)NC[C@H](NC(=O)[C@@H]3CCCN3S(=O)(=O)c3cc(Cl)cc(Cl)c3)C(=O)O)CC2)CC1 [Example 116, (2S)-2-[1-(3,5-Dichlorophenylsulfonyl)-L-prolyl]amino-3-[[4-[2-[(4-methylpiperazin-1-yl)carbonyloxy]ethyl]piperidin-1-ylcarbonyl]amino]propionic Acid]"
21,135 nM,"O=C(O)[C@H](CCC(=O)N1CCC(CCOC(=O)N2CCN(c3ccccc3)CC2)CC1)NC(=O)[C@@H]1CCCN1S(=O)(=O)c1cc(Cl)cc(Cl)c1 [Example 117, (2S)-2-[1-(3,5-Dichlorophenylsulfonyl)-L-prolylamino]-5-oxo-5-[4-[2-(4-phenylpiperazin-1-ylcarbonyloxy)ethyl]piperidin-1-yl]pentanoic Acid]"
